According to US11596639B2, “Substituted indole Mcl-1 inhibitors” (Vanderbilt University, priority 2016, dated 2023):
Like-named read-outs stand apart in the source and are kept apart here.

Test system: H929 human cancer cell lines
Test: Cellular viability / proliferation (Cell TiterGlo, 72 h)
Type: cell-based
Method: Cellular Viability of Human Tumor Cell Lines
To evaluate compound effect on cellular proliferation, cells were plated at 1,000 cells/well in 96-well tissue culture plates in a total volume of 90 μL medium supplemented with 10% FBS (Sigma, Saint Louis, Mo.). 24 hours later, 10 μL of compound (in a 2-fold serial dilution) is added to the cells for a top concentration of 50 μM and a final DMSO concentration <1%. After 72 hours, 50 μL of Cell TiterGlo (Promega, Madison, Wis., USA) reagent is added to each well and plates are incubated at room temperature, in the dark, for 30 minutes. Luminescence is measured on a BioTek Cytation 3. Luminescence values are imported into a template in XLFit (Guildford, Surrey, UK) that uses a four-parameter fit to generate an IC50 value for each compound dilution series on the plate.

[1] = Homo sapiens, NCI-H929, 72 h, read-out: GI50 on cellular proliferation of H929 human cancer cell lines, H929 cells, 72 h, Cell TiterGlo, 10% FBS
[2] = read-out: GI50 on cellular proliferation of H929 human cancer cell lines, H929 cells, 72 h, Cell TiterGlo, 10% FBS

SMILES | GI50 [1] [nM] | other results
Cc1cc(OCCCc2c3n(c4c(-c5c(C)nn(C)c5C)c(Cl)ccc24)CCCN(c2cn(C)c4cc(C(=O)O)ccc24)C3=O)cc(C)c1Cl [Example 68, 3-(8-Chloro-11-(3-(4-chloro-3,5-dimethylphenoxy)propyl)-1-oxo-7-(1,3,5-trimethyl-1H-pyrazol-4-yl)-4,5-dihydro-1H-[1,4]diazepino[1,2-a]indol-2(3H)-yl)-1-methyl-1H-indole-6-carboxylic acid] | 350 | 
Cc1cc(OCCCc2c3n(c4c(-c5c(C)ncnc5C)c(C)ccc24)[C@H](C)CN(c2cccc4cc(C(=O)O)n(Cc5ccccn5)c24)C3=O)cc(C)c1Cl (atropisomer, axis not shown) [Example 276, (R)-7-(10-(3-(4-chloro-3,5-dimethylphenoxy)propyl)-6-(4,6-dimethylpyrimidin-5-yl)-4,7-dimethyl-1-oxo-3,4-dihydropyrazino[1,2-a]indol-2(1H)-yl)-1-(pyridin-2-ylmethyl)-1H-indole-2-carboxylic acid] |  | GI50 [2]: 290 nM
Cc1cc(OCCCc2c3n(c4c(-c5c(C)nn(C)c5C)c(Cl)ccc24)CCCN(c2cc(C(=O)O)c4ccn(C)c4c2)C3=O)cc(C)c1Cl (single isomer, unassigned) [Example 440, 6-(8-chloro-11-(3-(4-chloro-3,5-dimethylphenoxy)propyl)-1-oxo-7-(1,3,5-trimethyl-1H-pyrazol-4-yl)-4,5-dihydro-1H-[1,4]diazepino[1,2-a]indol-2(3H)-yl)-1-methyl-1H-indole-4-carboxylic acid] |  | GI50 [2]: 4500 nM
Cc1cccc(Cn2c(C(=O)O)cc3cc(OCCN(C)C)cc(N4C[C@@H](C)n5c(c(CCCOc6cc(C)c(Cl)c(C)c6)c6ccc(Cl)c(-c7c(C)nn(C)c7C)c65)C4=O)c32)n1 [Example 592, (R)-7-(7-chloro-10-(3-(4-chloro-3,5-dimethylphenoxy)propyl)-4-methyl-1-oxo-6-(1,3,5-trimethyl-1H-pyrazol-4-yl)-3,4-dihydropyrazino[1,2-a]indol-2(1H)-yl)-5-(2-(dimethylamino)ethoxy)-1-((6-methylpyridin-2-yl)methyl)-1H-indole-2-carboxylic acid] | 880 | 
COCCn1c(C(=O)O)cc2cc(C)cc(N3C[C@@H](C)n4c(c(CCCOc5cc(C)c(Cl)c(C)c5)c5ccc(Cl)c(-c6c(C)nc(CN7CCN(C)C(=O)C7)nc6C)c54)C3=O)c21 [Example 729, (R)-7-(7-chloro-10-(3-(4-chloro-3,5-dimethylphenoxy)propyl)-6-(4,6-dimethyl-2-((4-methyl-3-oxopiperazin-1-yl)methyl)pyrimidin-5-yl)-4-methyl-1-oxo-3,4-dihydropyrazino[1,2-a]indol-2(1H)-yl)-1-(2-methoxyethyl)-5-methyl-1H-indole-2-carboxylic acid] | 260 | 
Cc1cc(OCCCc2c3n(c4c(-c5c(C)nn(C)c5C)c(Cl)ccc24)[C@H](C)CN(c2cc(N(C)C(=O)CN4CCCCC4)cc4c(C(=O)O)cn(C)c24)C3=O)cc(C)c1Cl [Example 612, (R)-7-(7-chloro-10-(3-(4-chloro-3,5-dimethylphenoxy)propyl)-4-methyl-1-oxo-6-(1,3,5-trimethyl-1H-pyrazol-4-yl)-3,4-dihydropyrazino[1,2-a]indol-2(1H)-yl)-1-methyl-5-(N-methyl-2-(piperidin-1-yl)acetamido)-1H-indole-3-carboxylic acid] | 7600 | 
COc1ccc(N2C[C@@H](C)n3c(c(CCCOc4cc(C)c(Cl)c(C)c4)c4ccc(Cl)c(-c5c(C)nn(C)c5C)c43)C2=O)c2c1c(C(=O)O)cn2Cc1cccc(C)n1 [Example 621, (R)-7-(7-chloro-10-(3-(4-chloro-3,5-dimethylphenoxy)propyl)-4-methyl-1-oxo-6-(1,3,5-trimethyl-1H-pyrazol-4-yl)-3,4-dihydropyrazino[1,2-a]indol-2(1H)-yl)-4-methoxy-1-((6-methylpyridin-2-yl)methyl)-1H-indole-3-carboxylic add] |  | GI50 (H929 cells, 72 h, Cell TiterGlo, 10% FBS, read-out: GI50 on cellular proliferation of H929 human cancer cell lines): 390 nM
Cc1cc(OCCCc2c3n(c4c(-c5c(C)nn(C)c5C)c(Cl)ccc24)[C@H](C)CN(c2cccc4c(C(N)=O)cn(C)c24)C3=O)cc(C)c1Cl [Example 357, (R)-7-(7-Chloro-10-(3-(4-chloro-3,5-dimethylphenoxy)propyl)-4-methyl-1-oxo-6-(1,3,5-trimethyl-1H-pyrazol-4-yl)-3,4-dihydropyrazino[1,2-a]indol-2(1H)-yl)-1-methyl-1H-indole-3-carboxamide] | 2000 | 
COc1ccc(N2C[C@@H](C)n3c(c(CCCOc4cc(C)c(Cl)c(C)c4)c4ccc(Cl)c(-c5c(C)nc(CN6CCN(C)CC6)nc5C)c43)C2=O)c2c1cc(C(=O)O)n2Cc1ccccn1 [Example 492, (R)-7-(7-Chloro-10-(3-(4-chloro-3,5-dimethylphenoxy)propyl)-6-(4,6-dimethyl-2-((4-methylpiperazin-1-yl)methyl)pyrimidin-5-yl)-4-methyl-1-oxo-3,4-dihydropyrazino[1,2-a]indol-2(1H)-yl)-4-methoxy-1-(pyridin-2-ylmethyl)-1H-indole-2-carboxylic acid] | 360 | 
COc1ccc(N2C[C@@H](C)n3c(c(CCCOc4cc(C)c(Cl)c(C)c4)c4ccc(Cl)c(-c5c(C)nn(C)c5C)c43)C2=O)c2c1c(C(=O)O)cn2Cc1cccc(C)n1 [Example 622, (R)-7-(7-chloro-10-(3-(4-chloro-3,5-dimethylphenoxy)propyl)-4-methyl-1-oxo-6-(1,3,5-trimethyl-1H-pyrazol-4-yl)-3,4-dihydropyrazino[1,2-a]indol-2(1H)-yl)-4-methoxy-1-((6-methylpyridin-2-yl)methyl)-1H-indole-3-carboxylic acid] | 920 | 
Cc1cc(OCCCc2c3n(c4c(-c5c(C)nn(C)c5C)c(Cl)ccc24)[C@H](C)CN(c2cccc4cc(C(=O)O)ccc24)C3=O)cc(C)c1Cl [Example 187, (R)-5-(7-Chloro-10-(3-(4-chloro-3,5-dimethylphenoxy)propyl)-4-methyl-1-oxo-6-(1,3,5-trimethyl-1H-pyrazol-4-yl)-3,4-dihydropyrazino[1,2-a]indol-2(1H)-yl)-2-naphthoic acid] |  | GI50 [2]: < 200 nM
Cc1cc(OCCCc2c3n(c4c(-c5c(C)nn(C)c5C)c(Cl)ccc24)CCCN(c2ccc(C(=O)O)c4ccn(C)c24)C3=O)cc(C)c1Cl [Example 55, 7-(8-Chloro-11-(3-(4-chloro-3,5-dimethylphenoxy)propyl)-1-oxo-7-(1,3,5-trimethyl-1H-pyrazol-4-yl)-4,5-dihydro-1H-[1,4]diazepino[1,2-a]indol-2(3H)-yl)-1-methyl-1H-indole-4-carboxylic acid] | 5700 | 
Cc1cc(OCCCc2c3n(c4c(-c5c(C)nn(C)c5C)c(Cl)ccc24)[C@H](C)CN(c2cn(C)c4ccc(C(=O)O)cc24)C3=O)cc(C)c1Cl [Example 76, (R)-3-(7-Chloro-10-(3-(4-chloro-3,5-dimethylphenoxy)propyl)-4-methyl-1-oxo-6-(1,3,5-trimethyl-1H-pyrazol-4-yl)-3,4-dihydropyrazino[1,2-a]indol-2(1H)-yl)-1-methyl-1H-indole-5-carboxylic acid] | < 200 | 
Cc1cc(OCCCc2c3n(c4c(-c5c(C)nn(C)c5C)c(Cl)ccc24)CCCN(Cc2cc(C(=O)O)ccn2)C3=O)cc(C)c1Cl [Example 43, 2-((8-Chloro-11-(3-(4-chloro-3,5-dimethylphenoxy)propyl)-1-oxo-7-(1,3,5-trimethyl-1H-pyrazol-4-yl)-4,5-dihydro-1H-[1,4]diazepino[1,2-a]indol-2(3H)-yl)methyl)isonicotinic acid] | 9400 | 
